Here are results for 4 cell lines from the supplement of paper PMC10307832.

Holding throughout (test): relative viability (nuclei count vs DMSO), 5 days (fraction); higher = more cells survive
Compound in the test “Avagacestat + Linsitinib”: NC(=O)[C@@H](CCC(F)(F)F)N(Cc1ccc(-c2ncon2)cc1F)S(=O)(=O)c1ccc(Cl)cc1 [Avagacestat] + C[C@]1(O)C[C@@H](c2nc(-c3ccc4ccc(-c5ccccc5)nc4c3)c3c(N)nccn32)C1 [Linsitinib] (partner 1 µM)
In outline: (§1)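 A single step with final 0.05% Triton X-100, 1% formaldehyde and 1 ug/ml Hoechst fixed the cells and stained nuclei 5 days after treatment. Lung cancer cell lines in 1536-well plates had been treated by pin tool the day after seeding with one drug alone or a fixed anchor-drug dose plus five library-drug doses (not always all listed) in √10 steps, and nuclei were counted on 4× images. Relative viability is the ratio of nuclei in treated wells to nuclei in vehicle wells, taken as the median of duplicate plates.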

Compound in the test “Avagacestat + Tozasertib”: NC(=O)[C@@H](CCC(F)(F)F)N(Cc1ccc(-c2ncon2)cc1F)S(=O)(=O)c1ccc(Cl)cc1 [Avagacestat] + Cc1cc(Nc2cc(N3CCN(C)CC3)nc(Sc3ccc(NC(=O)C4CC4)cc3)n2)n[nH]1 [Tozasertib] (partner 0.1 µM)
The gist of the method: as §1

Compound in the test “Avagacestat + OSI-027”: NC(=O)[C@@H](CCC(F)(F)F)N(Cc1ccc(-c2ncon2)cc1F)S(=O)(=O)c1ccc(Cl)cc1 [Avagacestat] + COc1cccc2cc(-c3nc([C@H]4CC[C@H](C(=O)O)CC4)n4ncnc(N)c34)[nH]c12 [OSI-027] (partner 0.5 µM)
In outline:
as §1

Compound in the test “Avagacestat + Crizotinib”: NC(=O)[C@@H](CCC(F)(F)F)N(Cc1ccc(-c2ncon2)cc1F)S(=O)(=O)c1ccc(Cl)cc1 [Avagacestat] + C[C@@H](Oc1cc(-c2cnn(C3CCNCC3)c2)cnc1N)c1c(Cl)ccc(F)c1Cl [Crizotinib] (partner 1 µM)
The gist of the method: as §1

In the case of NCI-H2228, the relative viability amounted to 1.04 in the test with Avagacestat + Linsitinib (first compound 0.08 µM); 0.765 with Avagacestat + Linsitinib (first compound 0.253 µM); 0.786 in the test with Avagacestat + Linsitinib (first compound 0.8 µM); 0.62 in the test with Avagacestat + Linsitinib (first compound 2.53 µM); 0.534 with Avagacestat + Linsitinib (first compound 8 µM); 0.206 in the test with Avagacestat + Tozasertib (first compound 0.08 µM). Besides, the relative viability in the test with Avagacestat + Tozasertib (first compound 0.253 µM) turned out to be 0.255; with Avagacestat + Tozasertib (first compound 0.8 µM) it was 0.206; in the test with Avagacestat + Tozasertib (first compound 2.53 µM), 0.224; in the test with Avagacestat + Tozasertib (first compound 8 µM) it was 0.242; with Avagacestat + OSI-027 (first compound 0.08 µM), 0.849; with Avagacestat + OSI-027 (first compound 0.253 µM), 0.455. The relative viability in the test with Avagacestat + OSI-027 (first compound 0.8 µM) amounted to 0.57; with Avagacestat + OSI-027 (first compound 2.53 µM), 0.503; with Avagacestat + OSI-027 (first compound 8 µM), 0.504; in the test with Avagacestat + Crizotinib (first compound 0.08 µM) it was 0.472; with Avagacestat + Crizotinib (first compound 0.253 µM) it was 0.487; with Avagacestat + Crizotinib (first compound 0.8 µM), 0.427. The relative viability worked out at 0.465 in the test with Avagacestat + Crizotinib (first compound 2.53 µM) and 0.423 with Avagacestat + Crizotinib (first compound 8 µM).
Consider HOP-62, for which the relative viability with Avagacestat + Linsitinib (first compound 0.08 µM) turned out to be 1.06; with Avagacestat + Linsitinib (first compound 0.253 µM), 0.852; with Avagacestat + Linsitinib (first compound 0.8 µM), 0.992; with Avagacestat + Linsitinib (first compound 2.53 µM), 0.919; in the test with Avagacestat + Linsitinib (first compound 8 µM), 0.94; with Avagacestat + Tozasertib (first compound 0.08 µM) it was 0.357. Also, the relative viability was determined as 0.353 with Avagacestat + Tozasertib (first compound 0.253 µM); 0.373 with Avagacestat + Tozasertib (first compound 0.8 µM); 0.363 with Avagacestat + Tozasertib (first compound 2.53 µM); 0.335 in the test with Avagacestat + Tozasertib (first compound 8 µM); 1.16 in the test with Avagacestat + OSI-027 (first compound 0.08 µM); 0.895 in the test with Avagacestat + OSI-027 (first compound 0.253 µM). The relative viability with Avagacestat + OSI-027 (first compound 0.8 µM) was determined as 0.737; in the test with Avagacestat + OSI-027 (first compound 2.53 µM) it was 0.609; with Avagacestat + OSI-027 (first compound 8 µM), 0.63; with Avagacestat + Crizotinib (first compound 0.08 µM), 0.936; with Avagacestat + Crizotinib (first compound 0.253 µM), 1.08; with Avagacestat + Crizotinib (first compound 0.8 µM), 0.995. Also, the relative viability with Avagacestat + Crizotinib (first compound 2.53 µM) is 1.05; with Avagacestat + Crizotinib (first compound 8 µM), 1.03.
Consider NCI-H322M, for which the relative viability with Avagacestat + Linsitinib (first compound 0.08 µM) stood at 0.826; in the test with Avagacestat + Linsitinib (first compound 0.253 µM), 0.892; in the test with Avagacestat + Linsitinib (first compound 0.8 µM), 1.03; in the test with Avagacestat + Linsitinib (first compound 2.53 µM), 0.823; with Avagacestat + Linsitinib (first compound 8 µM), 0.681; in the test with Avagacestat + Tozasertib (first compound 0.08 µM), 0.491. Further, the relative viability with Avagacestat + Tozasertib (first compound 0.253 µM) is 0.51; with Avagacestat + Tozasertib (first compound 0.8 µM), 0.5; with Avagacestat + Tozasertib (first compound 2.53 µM) it was 0.454; with Avagacestat + Tozasertib (first compound 8 µM), 0.474; in the test with Avagacestat + OSI-027 (first compound 0.08 µM), 0.519; with Avagacestat + OSI-027 (first compound 0.253 µM) it was 0.562. Further, the relative viability with Avagacestat + OSI-027 (first compound 0.8 µM) worked out at 0.571; with Avagacestat + OSI-027 (first compound 2.53 µM), 0.501; with Avagacestat + OSI-027 (first compound 8 µM), 0.488; with Avagacestat + Crizotinib (first compound 0.08 µM) it was 0.874; with Avagacestat + Crizotinib (first compound 0.253 µM), 1.03; in the test with Avagacestat + Crizotinib (first compound 0.8 µM), 0.952. Moreover, the figures for the relative viability with Avagacestat + Crizotinib (first compound 2.53 µM) and with Avagacestat + Crizotinib (first compound 8 µM) were 0.934 and 0.787, respectively.
As for HCC-78, the relative viability in the test with Avagacestat + Linsitinib (first compound 0.08 µM) was 0.568; in the test with Avagacestat + Linsitinib (first compound 0.253 µM) it was 0.54; with Avagacestat + Linsitinib (first compound 0.8 µM), 0.706; with Avagacestat + Linsitinib (first compound 2.53 µM) it was 0.396; in the test with Avagacestat + Linsitinib (first compound 8 µM), 0.406; with Avagacestat + Tozasertib (first compound 0.08 µM), 0.404. For the same cell line, the relative viability with Avagacestat + Tozasertib (first compound 0.253 µM) turned out to be 0.473; in the test with Avagacestat + Tozasertib (first compound 0.8 µM), 0.208; with Avagacestat + Tozasertib (first compound 2.53 µM), 0.396; with Avagacestat + Tozasertib (first compound 8 µM), 0.377; in the test with Avagacestat + OSI-027 (first compound 0.08 µM), 0.381; with Avagacestat + OSI-027 (first compound 0.253 µM), 0.4. The relative viability was 0.349 with Avagacestat + OSI-027 (first compound 0.8 µM); 0.373 with Avagacestat + OSI-027 (first compound 2.53 µM); 0.401 with Avagacestat + OSI-027 (first compound 8 µM); 0.322 in the test with Avagacestat + Crizotinib (first compound 0.08 µM); 0.343 in the test with Avagacestat + Crizotinib (first compound 0.253 µM); 0.338 with Avagacestat + Crizotinib (first compound 0.8 µM). In addition, the figures for the relative viability in the test with Avagacestat + Crizotinib (first compound 2.53 µM) and with Avagacestat + Crizotinib (first compound 8 µM) were 0.322 and 0.314, respectively.
